Measurements taken from patent publication US9359592B2, “Method for differentiation into retinal cells from stem cells” (SNU R&DB Foundation, priority 2009, dated 2016).

Assays:
[1] = tested on: retinal progenitor cells differentiated from hESCs (differentiation into photoreceptor cells); test: Immunochemical staining: positive rates of retinal cell markers after differentiation with substitutes for Wnt3a and Shh; type: cell-based, human; details: mean, sample size = 3
Experimental: The eye field precursors (floating aggregates) were cultured in 8-well poly-D-lysine/laminin-coated slides (BD Biosciences, Bedford, Mass.) under the same conditions that were used for differentiation into the retinal progenitor cells, the neural retinal progenitor cells, the photoreceptor cell precursors and the photoreceptor cells.
After being blocked for 90 min, the slides in each differentiation step were incubated overnight at 4° C. with the following antibodies specific for cells of each differentiation step: rabbit-Blue-opsin (1:500, Chemicon), sheep-Chx10 (1:100, Chemicon), rabbit-Crx (1:200, Santa Cruz Biotechnology, Santa Cruz, Calif., USA), rabbit-GFAP (1:200, Invitrogen), mouse-human specific mitochondria (1:50, Chemicon), rabbit-human specific mitochondria (1:200, Chemicon), mouse-Islet1 (1:10, Developmental Studies Hydroma Bank, DSHB; Iowa City, Iowa, USA), mouse-Ki67 (1:100, Vector Laboratories, Peterborough, England), mouse-Mitf (1:1,000, abcam, Cambridge, Mass., USA), mouse-nestin (1:250, BD Sciences), rabbit-neurofilament-200 (1:1,000, Sigma-Aldrich), rabbit-Otx2 (1:100, abcam), rabbit-Pax2 (1:250, abcam), mouse-Pax6 (1:2, DSHB), mouse-peripherin2 (1:500, GenScript, Piscataway, N.J., USA), rabbit-Rax (1:250, abcam), rabbit-recoverin (1:1,000, Chemicon), retinal pigment epithelium 65 (RPE65, 1:100, Chemicon), rabbit-rhodopsin (1:500, Sigma-Aldrich), mouse-rhodopsin (1:500, Ret-P1, Lab Vision, Fremont, Calif., USA), mouse-rhodopsin (1:2,000, Ret-P1, Sigma-Aldrich), mouse-rom1 (1:50, ABR-Affinity Bioreagents, Golden, Colo., USA), rabbit-PDE6 beta (1:100, abcam), rabbit-phosducin (1:500, Santa Cruz Biotechnology), mouse-PKC-alpha (1:500, Sigma-Aldrich), mouse-Prox1 (1:2,000, Chemicon), mouse-Sox2 (1:250, R&D Systems), rabbit-synaptophysin (1:2,000, Santa Cruz Biotechnology), and rabbit-ZO-1 (1:100, Zymed-Invitrogen).
The cells cultured on the slides in each step were washed three times for 5 min with PBS and incubated at room temperature for 2 hrs with species-specific secondary antibody conjugated with Cy3 (1:800, Jackson Immunoresearch Laboratory) or Alexa488 (1:500, Invitrogen). A standard material suitable for the primary and the secondary antibody was used to examine non-specific staining or interaction between the antibodies. Afterwards, the cells were washed three times for 5 min with PBS, counterstained with DAPI (4′,6-diamidino-2 phenylindole) and mounted in Vectashield (Vector Laboratories), followed by visualization under an epifluorescence microscope (Nikon Eclipse, E800, Tokyo, Japan) and a confocal microscope (Leica, Leica Microsystems Inc, Bannockburn, Ill., USA or Zeiss LSM510, Carl Zeiss, Inc, Thornwood, N.Y., USA).
500 cells were counted from 20 microscopic fields randomly selected at 200 magnification and evaluated for positive responses to each antibody. Positive responses to antibodies were determined after at least three evaluations. […] All data were represented as mean standard error of the mean (S.E.M) with a statistical significance of p<0.05.

[2] = tested on: hESC-derived retinal progenitor cells / neural retinal progenitor cells; test: Immunochemical staining: marker positive rates during stepwise differentiation (Examples 4 to 6); type: cell-based, human; details: 50 ng/ml Wnt3a for 5 days (day 18); 12.8% before addition
Experimental: The retinal progenitor cells generated in Example 3 were cultured in a medium for inducing differentiation into neural retinal progenitor cells [DMEM/F12 (Invitrogen), 1 mM L-glutamine (Invitrogen), 0.1 mM nonessential amino acids (Invitrogen), 0.1 mM mercaptoethanol (Sigma-Aldrich), 1% B27 supplement (Invitrogen), 1% N2 supplement (Invitrogen), 10 ng/ml noggin, 10 ng/ml IGF-1, 5 ng/ml FGF2, 50 ng/ml recombinant Wnt3a (R&D Systems)] supplied thereto for 5 days, thus giving neural retinal progenitor cells (FIG. 1).
The neural retinal progenitor cells generated in Example 4 were induced to differentiate into photoreceptor cell precursors by supplying a medium [DMEM/F12 (Invitrogen), 1 mM L-glutamine (Invitrogen), 0.1 mM nonessential amino acids (Invitrogen), 0.1 mM mercaptoethanol (Sigma-Aldrich), 1% B27 supplement (Invitrogen), 1% N2 supplement (Invitrogen), 10 ng/ml IGF-1, 50 ng/ml Wnt3a, and 250 ng/ml recombinant Shh (Sonic Hedgehog amino terminal peptide, Shh, R&D Systems)] for 3 days. Noggin and FGF2, both used in the previous step, were excluded from the medium (FIG. 1).
The differentiation of the cells obtained in Examples 3 to 6 was examined using an immunochemical staining method as follows. […]

O=C1Nc2cc(Br)ccc2/C1=C1/Nc2ccccc2/C1=N\O [BIO, 6-bromoindirubin-3′ oxime]
Positive rate of Crx ([1]; Wnt3a substitute at 2 uM): 65.8% | Positive rate of Ki67 ([1]; Wnt3a substitute at 2 uM): 17.2% | Positive rate of Pax6 ([1]; Wnt3a substitute at 2 uM): 92.8% | Positive rate of Rom ([1]; Wnt3a substitute at 2 uM): 60.3% | Positive rate of b-opsin ([1]; Wnt3a substitute at 2 uM): 77.5% | Positive rate of peripherin2 ([1]; Wnt3a substitute at 2 uM): 33.9% | Positive rate of recoverin ([1]; Wnt3a substitute at 2 uM): 77.1% | Positive rate of rhodopsin ([1]; Wnt3a substitute at 2 uM): 71.5%

Norrin: recombinant Norrin (R&D Systems), activator of the Wnt pathway that binds to Frizzled4 receptor
Positive rate of Crx ([1]; Wnt3a substitute at 50 ng/ml): 39.3% | Positive rate of Ki67 ([1]; Wnt3a substitute at 50 ng/ml): 42.2% | Positive rate of Rom ([1]; Wnt3a substitute at 50 ng/ml): 69.5% | Positive rate of b-opsin ([1]; Wnt3a substitute at 50 ng/ml): 71.1% | Positive rate of peripherin2 ([1]; Wnt3a substitute at 50 ng/ml): 24.9% | Positive rate of recoverin ([1]; Wnt3a substitute at 50 ng/ml): 85.0% | Positive rate of rhodopsin ([1]; Wnt3a substitute at 50 ng/ml): 82.9%

O=C1NC(=O)C(c2ccccc2[N+](=O)[O-])=C1Nc1ccc(O)c(Cl)c1 [SB415286]
Positive rate of Crx ([1]; Wnt3a substitute at 30 uM): 53.7% | Positive rate of Ki67 ([1]; Wnt3a substitute at 30 uM): 13.3% | Positive rate of Pax6 ([1]; Wnt3a substitute at 30 uM): 89.1% | Positive rate of Rom ([1]; Wnt3a substitute at 30 uM): 59.5% | Positive rate of b-opsin ([1]; Wnt3a substitute at 30 uM): 53.7% | Positive rate of peripherin2 ([1]; Wnt3a substitute at 30 uM): 9.1% | Positive rate of recoverin ([1]; Wnt3a substitute at 30 uM): 70.0% | Positive rate of rhodopsin ([1]; Wnt3a substitute at 30 uM): 69.3%

[Cl-].[Li+] [LiCl]
Positive rate of recoverin ([1]; Wnt3a substitute at 2.5 mM): 64.1% | Positive rate of rhodopsin ([1]; Wnt3a substitute at 2.5 mM): 56.2% | Positive rate of Crx ([1]; Wnt3a substitute at 5 mM): 5.0% | Positive rate of Ki67 ([1]; Wnt3a substitute at 5 mM): 33.3% | Positive rate of peripherin2 ([1]; Wnt3a substitute at 5 mM): 1.5% | Positive rate of recoverin ([1]; Wnt3a substitute at 5 mM): 78.9% | Positive rate of rhodopsin ([1]; Wnt3a substitute at 5 mM): 68.5%

B1: Wnt3a: recombinant Wnt3a (R&D Systems), Wnt signaling pathway activator (protein, UniProt P56704 19-352, looked up)
Protein Wnt-3a: SYPIWWSLAVGPQYSSLGSQPILCASIPGLVPKQLRFCRNYVEIMPSVAEGIKIGIQECQHQFRGRRWNCTTVHDSLAIFGPVLDKATRESAFVHAIASAGVAFAVTRSCAEGTAAICGCSSRHQGSPGKGWKWGGCSEDIEFGGMVSREFADARENRPDARSAMNRHNNEAGRQAIASHMHLKCKCHGLSGSCEVKTCWWSQPDFRAIGDFLKDKYDSASEMVVEKHRESRGWVETLRPRYTYFKVPTERDLVYYEASPNFCEPNPETGSFGTRDRTCNVSSHGIDGCDLLCCGRGHNARAERRREKCRCVFHWCCYVSCQECTRVYDVHTCK
Positive rate of the photoreceptor cell precursor marker Crx after Wnt3a addition [2]: 80.1%

B2: Wntl: recombinant Wnt1 (PeproTech), Wnt signaling pathway activator used instead of Wnt3a (protein, UniProt P04628 28-370, looked up)
Proto-oncogene Wnt-1: ANSSGRWWGIVNVASSTNLLTDSKSLQLVLEPSLQLLSRKQRRLIRQNPGILHSVSGGLQSAVRECKWQFRNRRWNCPTAPGPHLFGKIVNRGCRETAFIFAITSAGVTHSVARSCSEGSIESCTCDYRRRGPGGPDWHWGGCSDNIDFGRLFGREFVDSGEKGRDLRFLMNLHNNEAGRTTVFSEMRQECKCHGMSGSCTVRTCWMRLPTLRAVGDVLRDRFDGASRVLYGNRGSNRASRAELLRLEPEDPAHKPPSPHDLVYFEKSPNFCTYSGRLGTAGTAGRACNSSSPALDGCELLCCGRGHRTRTQRVTERCNCTFHWCCHVSCRNCTHTRVLHECL
Positive rate of Crx ([1]; Wnt3a substitute at 50 ng/ml): 60.3% | Positive rate of Ki67 ([1]; Wnt3a substitute at 50 ng/ml): 23.8% | Positive rate of Rom ([1]; Wnt3a substitute at 50 ng/ml): 55.9% | Positive rate of b-opsin ([1]; Wnt3a substitute at 50 ng/ml): 61.6% | Positive rate of peripherin2 ([1]; Wnt3a substitute at 50 ng/ml): 3.8% | Positive rate of recoverin ([1]; Wnt3a substitute at 50 ng/ml): 70.9% | Positive rate of rhodopsin ([1]; Wnt3a substitute at 50 ng/ml): 66.2%

B3: Wnt5A: recombinant Wnt5A (R&D Systems), Wnt signaling pathway activator used instead of Wnt3a (protein, UniProt P41221 62-380, looked up)
Protein Wnt-5a: IIGAQPLCSQLAGLSQGQKKLCHLYQDHMQYIGEGAKTGIKECQYQFRHRRWNCSTVDNTSVFGRVMQIGSRETAFTYAVSAAGVVNAMSRACREGELSTCGCSRAARPKDLPRDWLWGGCGDNIDYGYRFAKEFVDARERERIHAKGSYESARILMNLHNNEAGRRTVYNLADVACKCHGVSGSCSLKTCWLQLADFRKVGDALKEKYDSAAAMRLNSRGKLVQVNSRFNSPTTQDLVYIDPSPDYCVRNESTGSLGTQGRLCNKTSEGMDGCELMCCGRGYDQFKTVQTERCHCKFHWCCYVKCKKCTEIVDQFVCK
Positive rate of Crx ([1]; Wnt3a substitute at 50 ng/ml): 67.3% | Positive rate of Ki67 ([1]; Wnt3a substitute at 50 ng/ml): 41.3% | Positive rate of Rom ([1]; Wnt3a substitute at 50 ng/ml): 58.8% | Positive rate of b-opsin ([1]; Wnt3a substitute at 50 ng/ml): 55.0% | Positive rate of peripherin2 ([1]; Wnt3a substitute at 50 ng/ml): 20.7% | Positive rate of recoverin ([1]; Wnt3a substitute at 50 ng/ml): 61.0% | Positive rate of rhodopsin ([1]; Wnt3a substitute at 50 ng/ml): 59.5% | Positive rate of peripherin2 ([1]; Wnt3a substitute at 100 ng/ml): 14.2% | Positive rate of recoverin ([1]; Wnt3a substitute at 100 ng/ml): 61.6% | Positive rate of rhodopsin ([1]; Wnt3a substitute at 100 ng/ml): 56.1%

B4: Wntll: recombinant Wnt11 (R&D Systems), Wnt signaling pathway activator used instead of Wnt3a (protein, UniProt O96014 25-354, looked up)
Protein Wnt-11: IKWLALSKTPSALALNQTQHCKQLEGLVSAQVQLCRSNLELMHTVVHAAREVMKACRRAFADMRWNCSSIELAPNYLLDLERGTRESAFVYALSAAAISHAIARACTSGDLPGCSCGPVPGEPPGPGNRWGGCADNLSYGLLMGAKFSDAPMKVKKTGSQANKLMRLHNSEVGRQALRASLEMKCKCHGVSGSCSIRTCWKGLQELQDVAADLKTRYLSATKVVHRPMGTRKHLVPKDLDIRPVKDSELVYLQSSPDFCMKNEKVGSHGTQDRQCNKTSNGSDSCDLMCCGRGYNPYTDRVVERCHCKYHWCCYVTCRRCERTVERYVCK
Positive rate of Crx ([1]; Wnt3a substitute at 50 ng/ml): 65.9% | Positive rate of Ki67 ([1]; Wnt3a substitute at 50 ng/ml): 40.1% | Positive rate of Rom ([1]; Wnt3a substitute at 50 ng/ml): 50.2% | Positive rate of b-opsin ([1]; Wnt3a substitute at 50 ng/ml): 30.6% | Positive rate of peripherin2 ([1]; Wnt3a substitute at 50 ng/ml): 0.5% | Positive rate of recoverin ([1]; Wnt3a substitute at 50 ng/ml): 65.3% | Positive rate of rhodopsin ([1]; Wnt3a substitute at 50 ng/ml): 51.8% | Positive rate of peripherin2 ([1]; Wnt3a substitute at 100 ng/ml): 10.7% | Positive rate of recoverin ([1]; Wnt3a substitute at 100 ng/ml): 61.8% | Positive rate of rhodopsin ([1]; Wnt3a substitute at 100 ng/ml): 59.1%
